The results in this text go back to article PMC6263113 (Journal of Enzyme Inhibition and Medicinal Chemistry, 2018).

Data set [1] deals with T1, AChE (Rattus norvegicus, UniProt P37136).
T1 sequence (P37136 32-614): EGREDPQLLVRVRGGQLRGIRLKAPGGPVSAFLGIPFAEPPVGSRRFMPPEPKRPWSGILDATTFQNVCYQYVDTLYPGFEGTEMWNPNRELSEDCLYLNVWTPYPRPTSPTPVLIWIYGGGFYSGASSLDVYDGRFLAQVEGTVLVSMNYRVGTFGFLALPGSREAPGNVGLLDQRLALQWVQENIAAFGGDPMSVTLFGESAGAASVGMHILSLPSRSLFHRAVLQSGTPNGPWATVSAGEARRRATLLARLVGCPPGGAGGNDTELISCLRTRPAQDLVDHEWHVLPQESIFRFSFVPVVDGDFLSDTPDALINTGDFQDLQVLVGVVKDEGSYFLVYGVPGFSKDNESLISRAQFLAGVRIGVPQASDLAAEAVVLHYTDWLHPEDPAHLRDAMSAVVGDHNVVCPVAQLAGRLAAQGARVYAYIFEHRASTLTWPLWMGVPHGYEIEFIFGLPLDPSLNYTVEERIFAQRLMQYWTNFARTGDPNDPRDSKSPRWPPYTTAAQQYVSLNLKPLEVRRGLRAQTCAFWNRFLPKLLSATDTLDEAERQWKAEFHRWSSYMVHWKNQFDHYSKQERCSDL
Briefly: In vitro AChE activity in rat hippocampus homogenate. The data set is classed as biochemical.

For data set [2], the target named is T1, AChE. Briefly: In vitro AChE activity in rat cerebral cortex homogenate. The data set is classed as biochemical. Conditions: read-out: inhibition of AChE activity.
Data set [3] relates to MRC-5 (human fibroblast). Briefly: Cytotoxicity in fibroblast culture by SRB test. The data set is classed as cell-based. To be noted: 24 h.
Where [4] appears, read: read-out: inhibition of AChE activity.

Entries after “also recorded” stand apart in the source; their conditions may differ.

A word on the IC50: it is the concentration at which inhibition is half-maximal. Low values mean greater potency, high ones weaker potency. In general, inhibition refers to the drop in the measured response relative to a control, in per cent. In turn, `O=C1c2ccccc2SC(c2ccc([N+](=O)[O-])cc2)N1CCN1CCOCC1` (stereo not drawn) [5Ad, 3-(2-morpholinoethyl)-2-(4-nitrophenyl)-2,3-dihydro-4H-benzo[e][1,3]thiazin-4-one] returned an IC50 in data set [1] of 70.6 µM. Besides, the inhibition at 100 µM in data set [1] (setting [4]) is 46.4%.

With `CCCCC1Sc2ccccc2C(=O)N1CCCN1CCCCC1` (stereo not drawn) [5Ba, 2-butyl-3-(3-(piperidin-1-yl)propyl)-2,3-dihydro-4H-benzo[e][1,3]thiazin-4-one], in data set [2], the inhibition at 10 µM stood at 27.1%. The same compound had an IC50 in data set [1] of 73.3 µM. The inhibition at 100 µM in data set [1] (setting [4]) turned out to be 46.2%. The “cytotoxicity (cell proliferation vs DMSO control)” value in data set [3] (100 µM) is given as “noncytotoxic”.

Take `O=C1c2ccccc2SC(c2ccccc2)N1CCCN1CCCCC1` (stereo not drawn) [5Bb, 2-phenyl-3-(3-(piperidin-1-yl)propyl)-2,3-dihydro-4H-benzo[e][1,3]thiazin-4-one]: the inhibition at 10 µM in data set [2] was determined as 47.2%. The compound also showed an IC50 in data set [1] of 39.8 µM. Moreover, the inhibition at 50 µM in data set [1] (setting [4]) is 50%.

The compound `O=C1c2ccccc2SC(c2ccc([N+](=O)[O-])cc2)N1CCCN1CCCCC1` (stereo not drawn) [5Bd, 2-(4-nitrophenyl)-3-(3-(piperidin-1-yl)propyl)-2,3-dihydro-4H-benzo[e] [1,3]thiazin-4-one] displayed an IC50 in data set [1] of 39.8 µM. Also, in data set [3] (100 µM), the “cytotoxicity (cell proliferation vs DMSO control)” value is “no cytotoxicity; also recorded: noncytotoxic”. Moreover, the “cytotoxicity in human fibroblast cell (overall statement)” value in data set [3] is listed as “low cytotoxicity”.

For `O=C1c2ccccc2SC(c2ccc(F)cc2)N1CCCN1CCCCC1` (stereo not drawn) [5Bf, 2-(4-fluorophenyl)-3-(3-(piperidin-1-yl)propyl)-2,3-dihydro-4H-benzo[e][1,3]thiazin-4-one], the midpoint of inhibition in data set [1], the IC50, lay at 61.7 µM.

`O=C1c2ccccc2SC(c2ccc([N+](=O)[O-])cc2)N1CCN1CCCCC1` (stereo not drawn) [5Cd, 2-(4-nitrophenyl)-3-(2-(piperidin-1-yl)ethyl)-2,3-dihydro-4H-benzo[e] [1,3]thiazin-4-one]: half-maximal inhibition in data set [1] (IC50) required 119 µM. Further, the “cytotoxicity (cell proliferation vs DMSO control)” value in data set [3] (50 µM (lowest concentration tested)) is listed as “showed toxicity”.
